Test results published in patent US20090123907A1 (priority 2004, published 2009).

Columns and labels:
Assay type in all cases: cell-based
platelets [1] = test: Platelets in 2% lysine citrate and CPD, 15 days storage; conditions: PRP, CPD + 2% lysine citrate, room temperature
Source text: The second experiment was similar to the first platelet experiment reported above with the primary difference that the primary anticoagulant was CPD (citrate-phosphate-dextrose). This anticoagulant contains approximately 0.4% citrate by weight but also contains dextrose as an energy source for the platelets (and also, unfortunately, for any bacteria that may be present). […] It was believed that the CPD might further stabilize the platelets by providing an energy source.

platelets [2] = test: Platelet rich plasma supplemented with 2% lysine citrate, 25 days storage; conditions: room temperature
Source text: […]. In this experiment plasma is centrifuged to create platelet rich plasma (PRP). […]. For the first fifteen days the platelet parameters remain essentially unchanged. During the next five day period (days 16-20) the platelet count drifts down slightly and LDH level increases slightly. During the last five days (days 21-25), the platelet count drops off rather precipitously and the LDH level rises rather steeply. Yet clotting time remains relatively constant.

[3] = test system: Staphylococcus epidermidis; test: Colony counts of PRP samples subcultured on nutrient agar; conditions: for Colony Counts: PRP 1% citrate spiked with about 10 cfu/ml, room temperature
Method: In the experiment anticoagulated blood (0.4% citrate by weight) was centrifuged to produce platelet Rich Plasma (PRP). To test samples of PRP citric acid stock solution containing sufficient lysine to bring the solution pH to 7.0 was added to increase the citrate concentration to 1% by weight. Following this addition the pH of the mixture was 6.7. It will be apparent to one of skill in the art that the precise ratio of basic amino acid to citrate can be altered to adjust the pH of the either the stock solution or the final blood mixture. One sample of original PRP was used as the Normal Control, and one sample of the lysine citrate PRP was used as the Citrate Control. One sample of original PRP was inoculated with cultured Staphylococcus epidermidis to a final concentration of about 10 cfu/ml—this formed the Spiked Normal. […] The samples were incubated at room temperature for five days. Each day the number of platelets in each sample was counted; each sample was also tested for LDH (lactate dehydrogenase) and for the ability to induce a clot. Following the tests an aliquot of each sample was subcultured on nutrient agar and incubated under growth conditions.

SMILES: NCCCC[C@H](N)C(=O)O.O=C(O)CC(O)(CC(=O)O)C(=O)O [Lysine Citrate, lysine citrate]
- Clotting time (platelets [1]; Day 1): 29 s
- Count (platelets) (platelets [1]; Day 1): 2.41 × 10^5 per μl
- LDH (platelets [1]; Day 1): 98 IU/L
- Clotting time (platelets [1]; Day 2): 30 s
- Count (platelets) (platelets [1]; Day 2): 2.41 × 10^5 per μl
- LDH (platelets [1]; Day 2): 96 IU/L
- Clotting time (platelets [1]; Day 3): 30 s
- Count (platelets) (platelets [1]; Day 3): 2.40 × 10^5 per μl
- LDH (platelets [1]; Day 3): 97 IU/L
- Clotting time (platelets [1]; Day 4): 31 s
- Count (platelets) (platelets [1]; Day 4): 2.40 × 10^5 per μl
- LDH (platelets [1]; Day 4): 98 IU/L
- Clotting time (platelets [1]; Day 5): 32 s
- Count (platelets) (platelets [1]; Day 5): 2.38 × 10^5 per μl
- LDH (platelets [1]; Day 5): 99 IU/L
- Clotting time (platelets [1]; Day 6): 30 s
- Count (platelets) (platelets [1]; Day 6): 2.41 × 10^5 per μl
- LDH (platelets [1]; Day 6): 101 IU/L
- Clotting time (platelets [1]; Day 7): 28 s
- Count (platelets) (platelets [1]; Day 7): 2.42 × 10^5 per μl
- LDH (platelets [1]; Day 7): 100 IU/L
- Clotting time (platelets [1]; Day 8): 28 s
- Count (platelets) (platelets [1]; Day 8): 2.40 × 10^5 per μl
- LDH (platelets [1]; Day 8): 102 IU/L
- Clotting time (platelets [1]; Day 9): 31 s
- Count (platelets) (platelets [1]; Day 9): 2.38 × 10^5 per μl
- LDH (platelets [1]; Day 9): 100 IU/L
- Clotting time (platelets [1]; Day 10): 30 s
- Count (platelets) (platelets [1]; Day 10): 2.38 × 10^5 per μl
- LDH (platelets [1]; Day 10): 98 IU/L
- Clotting time (platelets [1]; Day 11): 29 s
- Count (platelets) (platelets [1]; Day 11): 2.35 × 10^5 per μl
- LDH (platelets [1]; Day 11): 103 IU/L
- Clotting time (platelets [1]; Day 12): 30 s
- Count (platelets) (platelets [1]; Day 12): 2.34 × 10^5 per μl
- LDH (platelets [1]; Day 12): 101 IU/L
- Clotting time (platelets [1]; Day 13): 30 s
- Count (platelets) (platelets [1]; Day 13): 2.34 × 10^5 per μl
- LDH (platelets [1]; Day 13): 103 IU/L
- Clotting time (platelets [1]; Day 14): 31 s
- Count (platelets) (platelets [1]; Day 14): 2.35 × 10^5 per μl
- LDH (platelets [1]; Day 14): 105 IU/L
- Clotting time (platelets [1]; Day 15): 26 s
- Count (platelets) (platelets [1]; Day 15): 2.28 × 10^5 per μl
- LDH (platelets [1]; Day 15): 122 IU/L
- Clotting time (platelets [2]; Day 1, PRP): 30 s
- Count (platelets) (platelets [2]; Day 1, PRP): 3.80 × 10^5 per μl
- LDH (platelets [2]; Day 1, PRP): 106 IU/L
- Clotting time (platelets [2]; Day 2, PRP): 30 s
- Count (platelets) (platelets [2]; Day 2, PRP): 3.75 × 10^5 per μl
- LDH (platelets [2]; Day 2, PRP): 108 IU/L
- Clotting time (platelets [2]; Day 3, PRP): 30 s
- Count (platelets) (platelets [2]; Day 3, PRP): 3.76 × 10^5 per μl
- LDH (platelets [2]; Day 3, PRP): 109 IU/L
- Clotting time (platelets [2]; Day 4, PRP): 30 s
- Count (platelets) (platelets [2]; Day 4, PRP): 3.80 × 10^5 per μl
- LDH (platelets [2]; Day 4, PRP): 108 IU/L
- Clotting time (platelets [2]; Day 5, PRP): 31 s
- Count (platelets) (platelets [2]; Day 5, PRP): 3.76 × 10^5 per μl
- LDH (platelets [2]; Day 5, PRP): 108 IU/L
- Clotting time (platelets [2]; Day 6, PRP): 31 s
- Count (platelets) (platelets [2]; Day 6, PRP): 3.75 × 10^5 per μl
- LDH (platelets [2]; Day 6, PRP): 106 IU/L
- Clotting time (platelets [2]; Day 7, PRP): 32 s
- Count (platelets) (platelets [2]; Day 7, PRP): 3.76 × 10^5 per μl
- LDH (platelets [2]; Day 7, PRP): 109 IU/L
- Clotting time (platelets [2]; Day 8, PRP): 30 s
- Count (platelets) (platelets [2]; Day 8, PRP): 3.76 × 10^5 per μl
- LDH (platelets [2]; Day 8, PRP): 109 IU/L
- Clotting time (platelets [2]; Day 9, PRP): 31 s
- Count (platelets) (platelets [2]; Day 9, PRP): 3.80 × 10^5 per μl
- LDH (platelets [2]; Day 9, PRP): 108 IU/L
- Clotting time (platelets [2]; Day 10, PRP): 30 s
- Count (platelets) (platelets [2]; Day 10, PRP): 3.77 × 10^5 per μl
- LDH (platelets [2]; Day 10, PRP): 109 IU/L
- Clotting time (platelets [2]; Day 11, PRP): 29 s
- Count (platelets) (platelets [2]; Day 11, PRP): 3.77 × 10^5 per μl
- LDH (platelets [2]; Day 11, PRP): 109 IU/L
- Clotting time (platelets [2]; Day 12, PRP): 30 s
- Count (platelets) (platelets [2]; Day 12, PRP): 3.75 × 10^5 per μl
- LDH (platelets [2]; Day 12, PRP): 108 IU/L
- Clotting time (platelets [2]; Day 13, PRP): 30 s
- Count (platelets) (platelets [2]; Day 13, PRP): 3.81 × 10^5 per μl
- LDH (platelets [2]; Day 13, PRP): 110 IU/L
- Clotting time (platelets [2]; Day 14, PRP): 31 s
- Count (platelets) (platelets [2]; Day 14, PRP): 3.80 × 10^5 per μl
- LDH (platelets [2]; Day 14, PRP): 110 IU/L
- Clotting time (platelets [2]; Day 15, PRP): 30 s
- Count (platelets) (platelets [2]; Day 15, PRP): 3.76 × 10^5 per μl
- LDH (platelets [2]; Day 15, PRP): 109 IU/L
- Clotting time (platelets [2]; Day 16, PRP): 29 s
- Count (platelets) (platelets [2]; Day 16, PRP): 3.75 × 10^5 per μl
- LDH (platelets [2]; Day 16, PRP): 109 IU/L
- Clotting time (platelets [2]; Day 17, PRP): 30 s
- Count (platelets) (platelets [2]; Day 17, PRP): 3.74 × 10^5 per μl
- LDH (platelets [2]; Day 17, PRP): 108 IU/L
- Clotting time (platelets [2]; Day 18, PRP): 30 s
- Count (platelets) (platelets [2]; Day 18, PRP): 3.76 × 10^5 per μl
- LDH (platelets [2]; Day 18, PRP): 110 IU/L
- Clotting time (platelets [2]; Day 19, PRP): 31 s
- Count (platelets) (platelets [2]; Day 19, PRP): 3.74 × 10^5 per μl
- LDH (platelets [2]; Day 19, PRP): 111 IU/L
- Clotting time (platelets [2]; Day 20, PRP): 30 s
- Count (platelets) (platelets [2]; Day 20, PRP): 3.74 × 10^5 per μl
- LDH (platelets [2]; Day 20, PRP): 111 IU/L
- Clotting time (platelets [2]; Day 21, PRP): 30 s
- Count (platelets) (platelets [2]; Day 21, PRP): 3.56 × 10^5 per μl
- LDH (platelets [2]; Day 21, PRP): 103 IU/L
- Clotting time (platelets [2]; Day 22, PRP): 31 s
- Count (platelets) (platelets [2]; Day 22, PRP): 3.42 × 10^5 per μl
- LDH (platelets [2]; Day 22, PRP): 105 IU/L
- Clotting time (platelets [2]; Day 23, PRP): 26 s
- Count (platelets) (platelets [2]; Day 23, PRP): 3.28 × 10^5 per μl
- LDH (platelets [2]; Day 23, PRP): 122 IU/L
- Clotting time (platelets [2]; Day 24, PRP): 29 s
- Count (platelets) (platelets [2]; Day 24, PRP): 2.91 × 10^5 per μl
- LDH (platelets [2]; Day 24, PRP): 159 IU/L
- Clotting time (platelets [2]; Day 25, PRP): 26 s
- Count (platelets) (platelets [2]; Day 25, PRP): 2.24 × 10^5 per μl
- LDH (platelets [2]; Day 25, PRP): 279 IU/L
- Colony Counts ([3]; Day 1): 10
- Colony Counts ([3]; Day 2): 7
- Colony Counts ([3]; Day 3): 5
- Colony Counts ([3]; Day 4): 9
- Colony Counts ([3]; Day 5): 7
- bacteria following plating onto nutrient agar ([3]; unspiked PRP 1% citrate): no bacteria
